How the values were obtained:
NOP receptor = conditions: cited from earlier work
Text: This is in general in line with literature reports (see Table 2 of [3] that summarizes the action of these compounds in various assays/preparations at human recombinant and rodent native NOP receptors). However, there are some aspects that deserve attention.

CHO cells = test: DMR in wild type CHO cells; conditions: for DMR response, CHO: CHO cells, pm ± sem
human NOP receptor [1] = target: T1, human NOP receptor (Homo sapiens, UniProt P41146); test: DMR assay in CHONOP cells, agonist effects; conditions: for Emax: DMR maximal effect; for DMR response, CHONOP: pm ± sem; for maximal effects compared with N/OFQ: DMR; for pEC50: DMR peak, at least 3 experiments in triplicate, inactive = no DMR response up to 1 μM, parentheses: CL95% (Fig 3)
human NOP receptor [2] = target: T1, human NOP receptor; type: cell-based; parameters: expressed in transfected cells; conditions: comparison N/OFQ and Ac-RYYRIK-NH2
human NOP receptor [3] = target: T1, human NOP receptor; test: DMR assay in CHONOP cells, antagonism of agonist concentration response curve
human NOP receptor [4] = target: T1, human NOP receptor; test: Classical Schild protocol, DMR in CHONOP cells
[5] = tested on: NOP receptor (control neurons); conditions: electrophysiology; cited from earlier work
[6] = tested on: NOP receptor (transfected neurons); conditions: electrophysiology; cited from earlier work
[7] = target: human Nociceptin/Orphanin FQ (N/OFQ) peptide NOP receptor (human) (UniProt P41146)
mu opioid receptor = mu opioid receptor (UniProt P35372)
[8] = target: human Nociceptin/Orphanin FQ (N/OFQ) peptide NOP receptor (human) (UniProt P41146); remark: listed apart in the source
[9] = 1 μM, 37°C, * p < 0.05 vs buffer (one-way ANOVA, Dunnett's)
[10] = CHONOP cells, 1 μM, 37°C, * p < 0.05 vs buffer (one-way ANOVA, Dunnett's)
[11] = CHONOP cells, 100 μM, * p < 0.05 vs buffer

T1 sequence (P41146 whole entry): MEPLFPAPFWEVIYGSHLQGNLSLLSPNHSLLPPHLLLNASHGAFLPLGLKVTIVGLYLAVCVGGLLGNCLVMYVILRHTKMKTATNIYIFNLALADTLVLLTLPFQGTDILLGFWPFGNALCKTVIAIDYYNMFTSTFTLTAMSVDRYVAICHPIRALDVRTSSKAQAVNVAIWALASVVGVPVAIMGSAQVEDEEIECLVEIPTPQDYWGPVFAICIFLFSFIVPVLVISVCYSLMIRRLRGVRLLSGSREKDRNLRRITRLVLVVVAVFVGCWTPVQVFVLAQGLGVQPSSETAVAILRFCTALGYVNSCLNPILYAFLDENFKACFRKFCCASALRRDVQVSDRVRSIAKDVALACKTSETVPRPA
Chain of human Nociceptin/Orphanin FQ (N/OFQ) peptide NOP receptor (human) (P41146 whole entry): as above
Chain of mu opioid receptor (P35372 whole entry): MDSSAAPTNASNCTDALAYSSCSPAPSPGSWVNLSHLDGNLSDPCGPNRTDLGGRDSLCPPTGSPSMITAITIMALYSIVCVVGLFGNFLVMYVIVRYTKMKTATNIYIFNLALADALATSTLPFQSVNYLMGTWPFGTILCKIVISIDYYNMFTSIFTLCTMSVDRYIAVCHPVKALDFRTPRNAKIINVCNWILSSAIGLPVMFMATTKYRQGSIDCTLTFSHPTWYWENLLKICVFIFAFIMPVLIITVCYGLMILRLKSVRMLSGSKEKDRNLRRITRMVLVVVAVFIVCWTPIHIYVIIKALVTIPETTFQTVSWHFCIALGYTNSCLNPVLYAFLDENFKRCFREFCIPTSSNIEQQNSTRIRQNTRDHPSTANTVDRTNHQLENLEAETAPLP

## CC(C)C1CCC(N2CCC(N3C(=O)C(=O)c4ccccc43)CC2)CC1 (centres unmarked) [AT-090]
NOP receptor
  efficacy vs N/OFQ, GTPγS binding: significantly lower efficacy than N/OFQ
  efficacy vs N/OFQ, NOP/G protein interaction: significantly lower efficacy than N/OFQ
CHO cells; [9]
  DMR response, CHO: 21±3 pm
Human NOP receptor [1]
  intrinsic activity (α): 1.23
Human NOP receptor [1]; CHONOP cells
  Emax: 252
Human NOP receptor [1]; [10]
  DMR response, CHONOP: 252±15 ^* pm
Human NOP receptor [1]; CHONOP
  maximal effects compared with N/OFQ: not statistically different to those of N/OFQ

## Nc1ncnc2c1ncn2[C@@H]1O[C@H](COP(=O)(O)OP(=O)(O)OP(=O)(O)O)[C@@H](O)[C@H]1O [ATP]
CHO cells; 100 μM, * p < 0.05 vs buffer
  DMR response, CHO: 177±15 ^* pm
Human NOP receptor [1]; [11]
  DMR response, CHONOP: 185±12 ^* pm

## CC[C@H](C)[C@H](NC(=O)[C@H](CCCNC(=N)N)NC(=O)[C@H](Cc1ccc(O)cc1)NC(=O)[C@H](Cc1ccc(O)cc1)NC(=O)[C@H](CCCNC(=N)N)NC(C)=O)C(=O)N[C@@H](CCCCN)C(N)=O [Ac-RYYRIK-NH2]
NOP receptor
  efficacy vs N/OFQ, GTPγS binding: significantly lower efficacy than N/OFQ
  efficacy vs N/OFQ, NOP/G protein interaction: significantly lower efficacy than N/OFQ
CHO cells; [9]
  DMR response, CHO: 17±8 pm
Human NOP receptor [2]
  sensitivity of DMR response to PTX: equally sensitive to PTX
Human NOP receptor [1]
  intrinsic activity (α): 0.89
Human NOP receptor [1]; CHONOP cells
  Emax: 182
Human NOP receptor [1]; [10]
  DMR response, CHONOP: 182±11 ^* pm
Human NOP receptor [1]; CHONOP
  maximal effects compared with N/OFQ: not statistically different to those of N/OFQ
Human NOP receptor [1]; after 1000 sec, in some but not all experiments
  negative DMR signal: concentration dependent negative signal after 1000 sec
Human NOP receptor [3]; comparison N/OFQ and Ac-RYYRIK-NH2
  sensitivity of DMR response to SB-612111: equally sensitive to PTX and to the NOP selective antagonist SB-612111

## C=C[C@@]1(C)CC(=O)[C@]2(O)[C@@]3(C)[C@@H](O)CCC(C)(C)[C@@H]3[C@H](O)[C@H](OC(C)=O)[C@@]2(C)O1 [FSK]
CHO cells; 100 μM, * p < 0.05 vs buffer
  DMR response, CHO: -172±23 ^* pm
Human NOP receptor [1]; [11]
  DMR response, CHONOP: -164±15 ^* pm

## C=CCN1CC[C@]23c4c5ccc(O)c4O[C@H]2C(=O)CC[C@@]3(O)[C@H]1C5 [Naloxone]
CHO cells; [9]
  DMR response, CHO: 23±5 pm

## O=C1NCN(c2ccccc2)C12CCN(C1Cc3cccc4cccc1c34)CC2 (centres unmarked) [Ro 65–6570]
CHO cells; 10 μM
  activity in wild type CHO cells: exhibited a DMR response in wild type CHO cells
CHO cells; [9]
  DMR response, CHO: 23±8 pm

## Cc1cccc2c1CC[C@H](CN1CCC(c3c(Cl)cccc3Cl)CC1)C[C@@H]2O [SB-612111, (-)-cis-1-methyl-7-[[4-(2,6-dichlorophenyl)piperidin-1-yl]methyl]-6,7,8,9-tetrahy dro-5H-benzocyclohepten-5-ol]
CHO cells; [9]
  DMR response, CHO: 26±3 pm
Human NOP receptor [1]; CHONOP cells
  effect per se in CHONOP cells: did not produce any effect per se
Human NOP receptor [1]; CHONOP cells, 37°C
  pEC50: inactive
Human NOP receptor [1]; [10]
  DMR response, CHONOP: -10±9 pm
Human NOP receptor [4]; 10 nM–1 μM
  effect on N/OFQ maximal effects (Schild): without significantly affecting its maximal effects
Human NOP receptor [4]; vs N/OFQ, Schild plot
  Schild slope: ~1

## CCn1c(=O)n(C2=C(CO)CN(CC3CCCCCCC3)CC2)c2ccccc21 [Trap-101]
[5]
  activity in control neurons: pure antagonists
[6]
  activity in NOP transfected neurons: inverse agonists

## C[C@H](NC(=O)CNC(=O)[C@@H](NC(=O)[C@H](Cc1ccccc1)NC(=O)CNC(=O)CNC(=O)CNCc1ccccc1)[C@@H](C)O)C(=O)N[C@@H](CCCNC(=N)N)C(=O)N[C@@H](CCCCN)C(=O)N[C@@H](CO)C(=O)N[C@@H](C)C(=O)N[C@@H](CCCNC(=N)N)C(=O)N[C@@H](CCCCN)C(=O)N[C@@H](CCCNC(=N)N)C(=O)N[C@@H](CCCCN)C(=O)N[C@@H](CC(N)=O)C(=O)N[C@@H](CCC(N)=O)C(N)=O [UFP-101, [Nphe1,Arg14,Lys15]nociceptin-NH2]
Human NOP receptor [1]; CHONOP cells, 37°C
  pEC50: crc incomplete
Human NOP receptor [1]; CHONOP, % of the maximal effects of N/OFQ
  stimulatory effect per se: ~20%
Human NOP receptor [3]
  Kb: 25.1 nM

## Ac-RYYRIK-NH2 (peptide)
[7]
  DMR response at 1 μM, CHONOP cells: 182 pm

## Dermorphin (peptide)
Mu opioid receptor
  pEC50 of the DMR response, CHO cells expressing the mu opioid receptor: 8.59 -log10(M)

## PWT2-N/OFQ (peptide)
[7]
  DMR response at 0.1 μM, CHONOP cells: 198 pm
[8]
  intrinsic activity α (Emax relative to N/OFQ), DMR, CHONOP cells (relative to N/OFQ): 0.97
  pEC50 of the DMR response (peak), CHONOP cells, tested up to 0.1 μM: 8 -log10(M)

## UFP-101 (peptide)
[7]
  DMR response at 1 μM, CHONOP cells (not marked as different from buffer): 40 pm
[8]
  pKB (antagonist potency): rightward shift by 1 μM UFP-101 of the concentration response curve to N/OFQ at the NOP receptor, DMR, CHONOP cells: 7.6 -log10(M)

## UFP-112 (peptide)
[7]
  DMR response at 1 μM, CHONOP cells: 248 pm
[8]
  intrinsic activity α (Emax relative to N/OFQ), DMR, CHONOP cells (relative to N/OFQ): 1.21
  pEC50 of the DMR response (peak), CHONOP cells: 8.66 -log10(M)

## [Arg^14,Lys^15]N/OFQ (peptide)
[7]
  DMR response at 1 μM, CHONOP cells: 271 pm

## [F/G]N/OFQ(1–13)-NH2 (peptide)
[7]
  DMR response at 1 μM, CHONOP cells: 200 pm
[8]
  intrinsic activity α (Emax relative to N/OFQ), DMR, CHONOP cells (relative to N/OFQ): 0.98
  pEC50 of the DMR response (peak), CHONOP cells: 8.06 -log10(M)

## [Nphe^1]N/OFQ(1–13)-NH2 (peptide)
[7]
  DMR response at 1 μM, CHONOP cells: 180 pm

From article PMC6117024, “NOP receptor pharmacological profile – A dynamic mass redistribution study” (PLoS ONE, 2018)
